Results: US6525001B1, “Substituted pyrimidine and pyridine herbicides” (Mid-American Commercialization Corporation, priority 1997, dated 2003)

What was measured:
Format in all cases: in vivo
Set-up in all cases: key: 0 is no effect; 10 is complete control
[1] = system: velvetleaf (Abutilon theophrasti); assay: Test B pre-/postemergence
Excerpt: (§1) Seeds of bedstraw (Galium aparine), blackgrass (Alopecurus myosuroides), broadleaf signalgrass (Brachiaria decumbens), cocklebur (Xanthium strumarium), corn (Zea mays), crabgrass (Digitaria sanguinalis), giant foxtail (Setaria faberii), lambsquarters (Chenopodium album), momingglory (Ipomoea hederacea), pigweed (Amaranthus retroflexus), rape (Brassica napus), soybean (Glycine max), sugar beet (Beta vulgaris), velvetleaf (Abutilon theophrasti), wheat (Triticum aestivum), wild oat (Avena fatua) and purple nutsedge (Cyperus rotundus) tubers were planted and treated preemergence with test chemicals formulated in a non-phytotoxic solvent mixture which included a surfactant.
(§2) At the same time, these crop and weed species were also treated with postemergence applications of test chemicals formulated in the same manner. Plants ranged in height from 2 to 18 cm (1- to 4-leaf stage) for postemergence treatments. Plant species in the flood test consisted of rice (Oryza sativa), smallflower flatsedge (Cyperus difformis), duck salad (Heteranthera limosa) and bamyardgrass (Echinochloa crus-galli) grown to the 2-leaf stage for testing. Treated plants and controls were maintained in a greenhouse for twelve to sixteen days, after which all species were compared to controls and visually evaluated. Plant response ratings, summarized in Table B, are based on a scale of 0 to 10 where 0 is no effect and 10 is complete control. A dash (−) response means no test result.

[2] = system: cocklebur (Xanthium strumarium); assay: Test B pre-/postemergence; settings: Preemergence
Excerpt: as §1, §2

[3] = system: broadleaf signalgrass (Brachiaria decumbens); assay: Test B pre-/postemergence
Excerpt: as §1, §2

wild oat (Avena fatua) = assay: Test B pre-/postemergence
Excerpt: as §1, §2

[4] = system: purple nutsedge (Cyperus rotundus); assay: Test B pre-/postemergence
Excerpt: as §1, §2

corn (Zea mays) = assay: Test B pre-/postemergence
Excerpt: as §1, §2

[5] = system: momingglory (Ipomoea hederacea); assay: Test B pre-/postemergence
Excerpt: as §1, §2

[6] = system: blackgrass (Alopecurus myosuroides); assay: Test B pre-/postemergence
Excerpt: as §1, §2

[7] = system: sugar beet (Beta vulgaris); assay: Test B pre-/postemergence
Excerpt: as §1, §2

rape (Brassica napus) = assay: Test B pre-/postemergence
Excerpt: as §1, §2

[8] = system: wheat (Triticum aestivum); assay: Test B pre-/postemergence
Excerpt: as §1, §2

[9] = system: pigweed (Amaranthus retroflexus); assay: Test B pre-/postemergence
Excerpt: as §1, §2

[10] = system: crabgrass (Digitaria sanguinalis); assay: Test B pre-/postemergence
Excerpt: as §1, §2

soybean (Glycine max) = assay: Test B pre-/postemergence
Excerpt: as §1, §2

[11] = system: giant foxtail (Setaria faberii); assay: Test B pre-/postemergence
Excerpt: as §1, §2

[12] = system: bedstraw (Galium aparine); assay: Test B pre-/postemergence
Excerpt: as §1, §2

[13] = system: bamyardgrass (Echinochloa crus-galli); assay: Test B flood test
Procedure, shortened: (§3)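 Flood test on plants grown to the 2-leaf stage; treated plants kept in greenhouse twelve to sixteen days, then visually rated against controls on a 0 (no effect) to 10 (complete control) scale.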

[14] = system: smallflower flatsedge (Cyperus difformis); assay: Test B flood test
Procedure, shortened: as §3

rice (Oryza sativa) = assay: Test B flood test
Procedure, shortened: as §3

[15] = system: duck salad (Heteranthera limosa); assay: Test B flood test
Procedure, shortened: as §3

[16] = Rate 125 g/ha, Postemergence, flood test
[17] = Rate 250 g/ha, Postemergence (flood test species)
[18] = Rate 500 g/ha, Postemergence (flood test species)

Cc1cnc(-c2ccccc2)nc1Cn1ccc(C(F)(F)F)n1 [Compound 7]
4: Plant response rating, S. Flatsedge [14, 18]
0: Velvetleaf plant response rating ([1]; Rate 125 g/ha, Preemergence) | Plant response rating, Velvetleaf ([1]; Rate 250 g/ha, Preemergence) | Plant response rating, Velvetleaf ([1]; Rate 500 g/ha, Preemergence) | Cocklebur plant response rating ([2]; Rate 125 g/ha) | Plant response rating, Cocklebur ([2]; Rate 250 g/ha) | Plant response rating, Cocklebur ([2]; Rate 500 g/ha) | B. signalgrass plant response rating ([3]; Rate 125 g/ha, Preemergence) | Plant response rating, B. signalgrass ([3]; Rate 250 g/ha, Preemergence) | Plant response rating, B. signalgrass ([3]; Rate 500 g/ha, Preemergence) | Plant response rating, Wild oats (wild oat (Avena fatua); Rate 125 g/ha, Postemergence) | Wild oats plant response rating (wild oat (Avena fatua); Rate 125 g/ha, Preemergence) | Plant response rating, Wild oats (wild oat (Avena fatua); Rate 250 g/ha, Postemergence) | Plant response rating, Wild oats (wild oat (Avena fatua); Rate 250 g/ha, Preemergence) | Plant response rating, Wild oats (wild oat (Avena fatua); Rate 500 g/ha, Postemergence) | Plant response rating, Wild oats (wild oat (Avena fatua); Rate 500 g/ha, Preemergence) | Plant response rating, Nutsedge ([4]; Rate 125 g/ha, Postemergence) | Nutsedge plant response rating ([4]; Rate 125 g/ha, Preemergence) | Plant response rating, Nutsedge ([4]; Rate 250 g/ha, Postemergence) | Plant response rating, Nutsedge ([4]; Rate 250 g/ha, Preemergence) | Plant response rating, Nutsedge ([4]; Rate 500 g/ha, Postemergence) | Plant response rating, Nutsedge ([4]; Rate 500 g/ha, Preemergence) | Corn plant response rating (corn (Zea mays); Rate 125 g/ha, Preemergence) | Plant response rating, Corn (corn (Zea mays); Rate 250 g/ha, Preemergence) | Plant response rating, Corn (corn (Zea mays); Rate 500 g/ha, Preemergence) | Morningglory plant response rating ([5]; Rate 125 g/ha, Preemergence) | Plant response rating, Morningglory ([5]; Rate 250 g/ha, Preemergence) | Plant response rating, Morningglory ([5]; Rate 500 g/ha, Preemergence) | Plant response rating, Blackgrass ([6]; Rate 125 g/ha, Postemergence) | Blackgrass plant response rating ([6]; Rate 125 g/ha, Preemergence) | Plant response rating, Blackgrass ([6]; Rate 250 g/ha, Preemergence) | Plant response rating, Blackgrass ([6]; Rate 500 g/ha, Preemergence) | Sugarbeets plant response rating ([7]; Rate 125 g/ha, Preemergence) | Plant response rating, Sugarbeets ([7]; Rate 250 g/ha, Preemergence) | Rape plant response rating (rape (Brassica napus); Rate 125 g/ha, Preemergence) | Plant response rating, Rape (rape (Brassica napus); Rate 250 g/ha, Preemergence) | Plant response rating, Rape (rape (Brassica napus); Rate 500 g/ha, Preemergence) | Plant response rating, Wheat ([8]; Rate 125 g/ha, Postemergence) | Wheat plant response rating ([8]; Rate 125 g/ha, Preemergence) | Plant response rating, Wheat ([8]; Rate 250 g/ha, Postemergence) | Plant response rating, Wheat ([8]; Rate 250 g/ha, Preemergence) | Plant response rating, Wheat ([8]; Rate 500 g/ha, Postemergence) | Plant response rating, Wheat ([8]; Rate 500 g/ha, Preemergence) | Redroot pigweed plant response rating ([9]; Rate 125 g/ha, Preemergence) | Plant response rating, Crabgrass ([10]; Rate 125 g/ha, Postemergence) | Crabgrass plant response rating ([10]; Rate 125 g/ha, Preemergence) | Soybean plant response rating (soybean (Glycine max); Rate 125 g/ha, Preemergence) | Plant response rating, Soybean (soybean (Glycine max); Rate 250 g/ha, Preemergence) | Plant response rating, Soybean (soybean (Glycine max); Rate 500 g/ha, Preemergence) | Giant foxtail plant response rating ([11]; Rate 125 g/ha, Preemergence) | Bedstraw plant response rating ([12]; Rate 125 g/ha, Preemergence) | Plant response rating, Bedstraw ([12]; Rate 250 g/ha, Preemergence) | Plant response rating, Bedstraw ([12]; Rate 500 g/ha, Preemergence) | Plant response rating, Rice (rice (Oryza sativa); [16]) | Plant response rating, Rice (rice (Oryza sativa); [17]) | Plant response rating, Rice (rice (Oryza sativa); [18]) | Plant response rating, Ducksalad [15, 16] | Plant response rating, Ducksalad [15, 17]
2: Plant response rating, Velvetleaf ([1]; Rate 500 g/ha, Postemergence) | Plant response rating, Corn (corn (Zea mays); Rate 250 g/ha, Postemergence) | Plant response rating, Corn (corn (Zea mays); Rate 500 g/ha, Postemergence) | Plant response rating, Morningglory ([5]; Rate 250 g/ha, Postemergence) | Plant response rating, Redroot pigweed ([9]; Rate 250 g/ha, Preemergence) | Plant response rating, Redroot pigweed ([9]; Rate 500 g/ha, Preemergence) | Plant response rating, Crabgrass ([10]; Rate 250 g/ha, Postemergence) | Plant response rating, Crabgrass ([10]; Rate 500 g/ha, Postemergence) | Plant response rating, Crabgrass ([10]; Rate 500 g/ha, Preemergence) | Plant response rating, Barnyardgrass [13, 18] | Plant response rating, S. Flatsedge [14, 17] | Plant response rating, Ducksalad [15, 18]
1: Plant response rating, Velvetleaf ([1]; Rate 125 g/ha, Postemergence) | Plant response rating, Velvetleaf ([1]; Rate 250 g/ha, Postemergence) | Plant response rating, B. signalgrass ([3]; Rate 125 g/ha, Postemergence) | Plant response rating, B. signalgrass ([3]; Rate 250 g/ha, Postemergence) | Plant response rating, B. signalgrass ([3]; Rate 500 g/ha, Postemergence) | Plant response rating, Corn (corn (Zea mays); Rate 125 g/ha, Postemergence) | Plant response rating, Morningglory ([5]; Rate 125 g/ha, Postemergence) | Plant response rating, Blackgrass ([6]; Rate 500 g/ha, Postemergence) | Plant response rating, Sugarbeets ([7]; Rate 500 g/ha, Preemergence) | Plant response rating, Crabgrass ([10]; Rate 250 g/ha, Preemergence) | Plant response rating, Giant foxtail ([11]; Rate 125 g/ha, Postemergence) | Plant response rating, Giant foxtail ([11]; Rate 250 g/ha, Postemergence) | Plant response rating, Giant foxtail ([11]; Rate 250 g/ha, Preemergence) | Plant response rating, Giant foxtail ([11]; Rate 500 g/ha, Postemergence) | Plant response rating, Barnyardgrass [13, 16] | Plant response rating, Barnyardgrass [13, 17] | Plant response rating, S. Flatsedge [14, 16]
7: Plant response rating, Rape (rape (Brassica napus); Rate 500 g/ha, Postemergence) | Plant response rating, Redroot pigweed ([9]; Rate 250 g/ha, Postemergence) | Plant response rating, Redroot pigweed ([9]; Rate 500 g/ha, Postemergence)
6: Plant response rating, Rape (rape (Brassica napus); Rate 250 g/ha, Postemergence)
3: Plant response rating, Sugarbeets ([7]; Rate 125 g/ha, Postemergence) | Plant response rating, Redroot pigweed ([9]; Rate 125 g/ha, Postemergence) | Plant response rating, Soybean (soybean (Glycine max); Rate 125 g/ha, Postemergence) | Plant response rating, Soybean (soybean (Glycine max); Rate 250 g/ha, Postemergence) | Plant response rating, Bedstraw ([12]; Rate 125 g/ha, Postemergence) | Plant response rating, Bedstraw ([12]; Rate 250 g/ha, Postemergence) | Plant response rating, Bedstraw ([12]; Rate 500 g/ha, Postemergence)
5: Plant response rating, Morningglory ([5]; Rate 500 g/ha, Postemergence) | Plant response rating, Rape (rape (Brassica napus); Rate 125 g/ha, Postemergence) | Plant response rating, Soybean (soybean (Glycine max); Rate 500 g/ha, Postemergence) | Plant response rating, Giant foxtail ([11]; Rate 500 g/ha, Preemergence)
8: Plant response rating, Sugarbeets ([7]; Rate 250 g/ha, Postemergence) | Plant response rating, Sugarbeets ([7]; Rate 500 g/ha, Postemergence)
